Measured values published in the NIST ThermoML archive (doi:10.1016/j.jct.2011.11.021).
Numbers after ± are expanded uncertainties.

Experiment: activity coefficient (dimensionless); of the first substance listed, at infinite dilution; xn = mol fraction of the nth substance listed
Conditions: Liquid, Chromatography, x1 = 0

Row | SMILES | activity coefficient (318.15 K) | activity coefficient (328.15 K) | activity coefficient (338.15 K) | activity coefficient (348.15 K) | activity coefficient (358.15 K) | activity coefficient (368.15 K)
1 | CCCCCCCCC [nonane] + COCC[N+]1(C)CCOCC1.O=S(=O)([N-]S(=O)(=O)C(F)(F)F)C(F)(F)F | 125 ± 9 | 108 ± 7 | 95.8 ± 6.6 | 85.6 ± 5.9 | 76.3 ± 5.2 | 68.7 ± 4.7
2 | C=CCCC [1-pentene] + COCC[N+]1(C)CCOCC1.O=S(=O)([N-]S(=O)(=O)C(F)(F)F)C(F)(F)F | 11 ± 0.8 | 10.3 ± 0.7 | 9.79 ± 0.67 | 9.25 ± 0.63 | 8.83 ± 0.6 | 8.35 ± 0.57
3 | C1CCOC1 [tetrahydrofuran] + COCC[N+]1(C)CCOCC1.O=S(=O)([N-]S(=O)(=O)C(F)(F)F)C(F)(F)F | 0.858 ± 0.055 | 0.867 ± 0.055 | 0.873 ± 0.056 | 0.882 ± 0.056 | 0.888 ± 0.057 | 0.895 ± 0.057
4 | CCCCCCCC [octane] + COCC[N+]1(C)CCOCC1.O=S(=O)([N-]S(=O)(=O)C(F)(F)F)C(F)(F)F | 82.1 ± 5.6 | 71.6 ± 4.9 | 64.6 ± 4.4 | 58.4 ± 4 | 51.7 ± 3.5 | 47.3 ± 3.2
5 | CCCO [propan-1-ol] + COCC[N+]1(C)CCOCC1.O=S(=O)([N-]S(=O)(=O)C(F)(F)F)C(F)(F)F | 2.39 ± 0.16 | 2.14 ± 0.15 | 1.96 ± 0.13 | 1.79 ± 0.12 | 1.63 ± 0.11 | 1.52 ± 0.1
6 | COC(C)(C)C [2-methoxy-2-methylpropane] + COCC[N+]1(C)CCOCC1.O=S(=O)([N-]S(=O)(=O)C(F)(F)F)C(F)(F)F | 3.53 ± 0.24 | 3.55 ± 0.24 | 3.57 ± 0.24 | 3.58 ± 0.24 | 3.59 ± 0.24 | 3.6 ± 0.25
7 | C1=CCCCC1 [cyclohexene] + COCC[N+]1(C)CCOCC1.O=S(=O)([N-]S(=O)(=O)C(F)(F)F)C(F)(F)F | 9.14 ± 0.62 | 8.62 ± 0.59 | 8.21 ± 0.56 | 7.84 ± 0.53 | 7.45 ± 0.51 | 7.08 ± 0.48
8 | CCOC(C)=O [ethyl acetate] + COCC[N+]1(C)CCOCC1.O=S(=O)([N-]S(=O)(=O)C(F)(F)F)C(F)(F)F | 0.984 ± 0.062 | 1 ± 0.06 | 1.02 ± 0.06 | 1.03 ± 0.06 | 1.04 ± 0.07 | 1.06 ± 0.07
9 | Cc1ccc(C)cc1 [1,4-dimethylbenzene] + COCC[N+]1(C)CCOCC1.O=S(=O)([N-]S(=O)(=O)C(F)(F)F)C(F)(F)F | 3.09 ± 0.21 | 3.06 ± 0.21 | 3.03 ± 0.21 | 3 ± 0.2 | 2.98 ± 0.2 | 2.96 ± 0.2
10 | c1ccccc1 [benzene] + COCC[N+]1(C)CCOCC1.O=S(=O)([N-]S(=O)(=O)C(F)(F)F)C(F)(F)F | 1.33 ± 0.09 | 1.32 ± 0.09 | 1.32 ± 0.09 | 1.32 ± 0.09 | 1.31 ± 0.09 | 1.31 ± 0.09
11 | CC1CCCCC1 [methylcyclohexane] + COCC[N+]1(C)CCOCC1.O=S(=O)([N-]S(=O)(=O)C(F)(F)F)C(F)(F)F | 27.6 ± 1.9 | 24.8 ± 1.7 | 22.8 ± 1.6 | 20.9 ± 1.4 | 19.2 ± 1.3 | 17.7 ± 1.2
12 | CCC(=O)CC [pentan-3-one] + COCC[N+]1(C)CCOCC1.O=S(=O)([N-]S(=O)(=O)C(F)(F)F)C(F)(F)F | 0.895 ± 0.057 | 0.912 ± 0.058 | 0.927 ± 0.059 | 0.941 ± 0.059 | 0.952 ± 0.06 | 0.967 ± 0.061
13 | C#CCCCC [1-hexyne] + COCC[N+]1(C)CCOCC1.O=S(=O)([N-]S(=O)(=O)C(F)(F)F)C(F)(F)F | 4.88 ± 0.33 | 4.8 ± 0.33 | 4.75 ± 0.32 | 4.7 ± 0.32 | 4.65 ± 0.32 | 4.61 ± 0.31
14 | CCC(C)(C)OC [2-methoxy-2-methylbutane] + COCC[N+]1(C)CCOCC1.O=S(=O)([N-]S(=O)(=O)C(F)(F)F)C(F)(F)F | 5.55 ± 0.38 | 5.5 ± 0.37 | 5.43 ± 0.37 | 5.37 ± 0.37 | 5.32 ± 0.36 | 5.28 ± 0.36
15 | CCO [ethanol] + COCC[N+]1(C)CCOCC1.O=S(=O)([N-]S(=O)(=O)C(F)(F)F)C(F)(F)F | 1.77 ± 0.12 | 1.61 ± 0.11 | 1.49 ± 0.1 | 1.36 ± 0.09 | 1.26 ± 0.08 | 1.17 ± 0.07
